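Where inhibition never reached the appropriate level, the endpoint shown equals the highest concentration tested. Otherwise, values were interpolated linearly from a five-concentration, 48-hour dose response in 96-well plates. The concentration for 50% growth inhibition is given as GI50. TGI: total growth inhibition.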
Legend:
Assay in all cases: inhibition of tumour cell growth, NCI panel, 48 h
[1] = test system: HT29 colon
[2] = test system: SK-MEL-2 melanoma
[3] = test system: T-47D breast
[4] = test system: MCF7 breast
[5] = test system: COLO 205 colon
[6] = test system: MDA-N
[7] = test system: MDA-MB-435
[8] = test system: SK-MEL-5 melanoma
[9] = test system: SN12C renal
[10] = test system: OVCAR-8 ovarian

Row | SMILES | TGI [1] [µM] | TGI [2] [µM] | TGI [3] [µM] | TGI [4] [µM] | TGI [5] [µM] | TGI [6] [µM] | TGI [7] [µM] | TGI [8] [µM] | TGI [9] [µM] | TGI [10] [µM] | GI50 [1] [µM] | GI50 [2] [µM] | GI50 [4] [µM] | GI50 [5] [µM] | GI50 [7] [µM] | GI50 [8] [µM] | GI50 [9] [µM] | GI50 [10] [µM]
1 | C[N+]12C=CC=C1C(N1CCCC1)c1sc(-c3ccc(Cl)cc3)cc12 (stereo unspecified) | 34.3 | 21.1 | 35.4 | 28.3 | 31.6 | 30.4 | 29.1 | 31.8 | 27.9 | 33.5 | – | – | – | – | – | – | – | –
2 | Nc1c2ccccc2nc2ccc(C(=O)Nc3ccc(S(N)(=O)=O)cc3)cc12 | > 100 | > 100 | > 100 | > 100 | > 100 | > 100 | > 100 | > 100 | > 100 | > 100 | – | – | – | – | – | – | – | –
3 | O=C(C(=O)n1ccc2ccccc21)c1c[nH]c2ccccc12 | > 10 | > 10 | > 10 | > 10 | > 10 | > 10 | > 10 | > 10 | > 10 | > 10 | – | – | – | – | – | – | – | –
4 | O=S(=O)(CC#CCS(=O)(=O)c1ccccc1)c1ccccc1 | 27.7 | 19.4 | – | 6.7 | 5.19 | 4.16 | 3.83 | 10.4 | 12.4 | 5.16 | – | – | – | – | – | – | – | –
5 | CCC1OC(=O)C(C)C(OC2CC(C)(O)C(O)C(C)O2)C(C)C(O)C(C)(O)CC(C)C(=O)C(C)C(O)C1C (stereo unspecified) | > 300 | > 300 | – | > 300 | > 300 | – | – | > 300 | > 300 | > 300 | – | – | – | – | – | – | – | –
6 | CN(C)/C=C/c1ccnc2c1C(=O)c1ccccc1C2=O | 37.9 | 18.3 | > 85 | > 44.7 | > 55.1 | 3.03 | – | 4.22 | 19.8 | 59.1 | – | – | – | – | – | – | – | –
7 | CN(C)CCCN1c2ccc3ccccc3c2Sc2cccc(Cl)c21 | 4.56 | 3.75 | 7.17 | – | 3.51 | 5.51 | 3.88 | 9.59 | 20.3 | 18 | – | – | – | – | – | – | – | –
8 | O=C(Cl)c1cc([N+](=O)[O-])cc([N+](=O)[O-])c1 | > 100 | > 100 | – | – | > 100 | – | – | > 100 | – | – | – | – | – | – | – | – | – | –
9 | NC(N)=NS(=O)(=O)c1ccc(NC(=O)c2c3ccccc3nc3ccccc23)cc1 | > 100 | > 100 | – | > 100 | > 100 | > 100 | > 100 | > 100 | > 100 | > 100 | – | – | – | – | – | – | – | –
10 | N#C/C(=C/NC(=S)Nc1ccc(S(N)(=O)=O)cc1)C(N)=O | > 100 | – | – | > 100 | > 100 | > 100 | > 100 | > 100 | > 100 | > 100 | – | – | – | – | – | – | – | –
11 | Nc1cc(N)c2nc(-c3ccccc3)c(Sc3ccc(F)cc3)nc2c1 | 45.9 | > 100 | – | 62.5 | 47.9 | – | 32.9 | 33.4 | 35.4 | 34.9 | 17.8 | 38.4 | 20 | 22.1 | 16.3 | 15.6 | 17.6 | 16.7

Reference: PubChem BioAssay (NCI)
